This note sets out measurements from ChEMBL document CHEMBL1152406, “Conformationally restricted homotryptamines. Part 5: 3-(trans-2-aminomethylcyclopentyl)indoles as potent selective serotonin reuptake inhibitors” (Bioorg Med Chem Lett, 2009).

The source made the active and inactive calls. The calls are words filed in the database; no cut-off is given here.

Assay [1] deals with Sodium-dependent serotonin transporter (Homo sapiens, UniProt P31645). The experiment in a line: Displacement of [125I]RTI-55 from human SERT expressed in HEK293 cells. The class given is cell-based. Background: Loss of bound radioactivity is the signal in a displacement assay; it reports binding, not function.
Sequence of Sodium-dependent serotonin transporter (P31645 whole entry): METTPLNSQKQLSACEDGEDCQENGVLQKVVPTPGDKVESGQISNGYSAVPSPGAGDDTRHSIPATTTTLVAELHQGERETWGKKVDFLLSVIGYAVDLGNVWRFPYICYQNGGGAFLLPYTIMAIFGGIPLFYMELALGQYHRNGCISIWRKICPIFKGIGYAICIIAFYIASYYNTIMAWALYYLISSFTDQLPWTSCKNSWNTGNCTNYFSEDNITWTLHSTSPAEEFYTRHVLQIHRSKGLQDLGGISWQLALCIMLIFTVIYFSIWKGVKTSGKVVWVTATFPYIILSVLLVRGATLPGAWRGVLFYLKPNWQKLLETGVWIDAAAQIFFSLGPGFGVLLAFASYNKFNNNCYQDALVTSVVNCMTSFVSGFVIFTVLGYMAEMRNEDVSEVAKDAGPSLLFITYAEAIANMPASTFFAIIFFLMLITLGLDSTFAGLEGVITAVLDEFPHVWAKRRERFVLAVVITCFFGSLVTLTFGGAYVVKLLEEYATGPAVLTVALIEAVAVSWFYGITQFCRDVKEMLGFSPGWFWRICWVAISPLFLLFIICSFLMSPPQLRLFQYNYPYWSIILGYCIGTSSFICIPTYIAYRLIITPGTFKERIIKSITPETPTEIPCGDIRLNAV
Assay [2] has as its target Sodium-dependent dopamine transporter (Homo sapiens, UniProt Q01959). The experiment in a line: Displacement of [125I]RTI-55 from human DAT expressed in HEK293 cells. The class given is cell-based.
Assay [3] deals with Sodium-dependent noradrenaline transporter (Homo sapiens, UniProt P23975). Put plainly: Displacement of [125I]nisoxetine from human NET expressed in HEK293 cells. In kind it is cell-based.
Sequence of Sodium-dependent noradrenaline transporter (P23975 whole entry): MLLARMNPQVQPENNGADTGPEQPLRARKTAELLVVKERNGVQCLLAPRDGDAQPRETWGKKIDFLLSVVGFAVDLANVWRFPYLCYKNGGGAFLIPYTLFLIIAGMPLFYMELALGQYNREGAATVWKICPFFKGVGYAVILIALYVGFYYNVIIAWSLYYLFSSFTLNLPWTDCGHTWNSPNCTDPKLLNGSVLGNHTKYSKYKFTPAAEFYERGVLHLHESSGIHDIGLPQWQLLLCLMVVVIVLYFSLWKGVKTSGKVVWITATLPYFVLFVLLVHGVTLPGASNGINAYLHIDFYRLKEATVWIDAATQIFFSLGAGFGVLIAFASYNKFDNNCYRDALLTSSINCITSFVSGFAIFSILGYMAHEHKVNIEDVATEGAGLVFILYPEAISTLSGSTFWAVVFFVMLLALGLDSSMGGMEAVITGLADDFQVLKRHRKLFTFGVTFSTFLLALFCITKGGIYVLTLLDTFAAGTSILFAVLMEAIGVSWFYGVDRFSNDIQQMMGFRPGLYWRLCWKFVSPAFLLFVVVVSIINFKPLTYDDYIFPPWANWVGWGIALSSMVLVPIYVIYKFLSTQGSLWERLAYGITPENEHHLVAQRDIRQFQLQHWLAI
For assay [4], the system named is Rattus norvegicus. Put plainly: Increase in extracellular serotonin level in frontal cortex of awake and free moving rat at 0.3 to 3 mg/kg, po by microdialysis. The class given is functional, organism-based.
Assay [5] deals with Rattus norvegicus. The experiment in a line: Increase in extracellular serotonin level in frontal cortex of awake and free moving rat at 1 mg/kg, po by microdialysis relative to basal level. The class given is functional.
For assay [6], the system named is Rattus norvegicus. The experiment in a line: Increase in extracellular serotonin level in frontal cortex of awake and free moving rat at 5 mg/kg, po by microdialysis relative to basal level. The class given is functional.

Sequence of Sodium-dependent dopamine transporter (Q01959 whole entry): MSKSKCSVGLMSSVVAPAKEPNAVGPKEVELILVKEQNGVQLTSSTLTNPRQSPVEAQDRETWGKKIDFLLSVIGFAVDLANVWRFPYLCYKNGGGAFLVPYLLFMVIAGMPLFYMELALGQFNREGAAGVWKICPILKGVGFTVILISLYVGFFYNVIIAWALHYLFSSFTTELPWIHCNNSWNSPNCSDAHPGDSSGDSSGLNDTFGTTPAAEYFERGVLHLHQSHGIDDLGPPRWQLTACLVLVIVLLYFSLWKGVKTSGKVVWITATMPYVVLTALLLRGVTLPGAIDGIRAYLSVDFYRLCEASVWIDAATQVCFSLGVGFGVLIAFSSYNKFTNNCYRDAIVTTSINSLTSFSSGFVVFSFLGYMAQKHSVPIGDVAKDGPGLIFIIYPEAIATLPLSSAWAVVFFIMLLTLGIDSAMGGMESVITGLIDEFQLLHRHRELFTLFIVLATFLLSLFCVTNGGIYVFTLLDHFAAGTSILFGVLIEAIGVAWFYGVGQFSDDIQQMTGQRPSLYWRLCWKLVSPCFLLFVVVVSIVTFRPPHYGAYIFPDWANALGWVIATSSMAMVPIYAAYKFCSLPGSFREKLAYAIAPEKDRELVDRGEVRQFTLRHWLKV

One may read the IC50 as the concentration that inhibits the measured activity by half. `CCNC[C@H]1CCC[C@@H]1c1c[nH]c2ccc(C#N)cc12` (racemic): in assay [1], the IC50 is 170 nM. In assay [1], `CN(Cc1ccccc1)C[C@H]1CCC[C@@H]1c1c[nH]c2ccc(C#N)cc12` (racemic) gave an IC50 of 85 nM.

Molecule `CN(C)C[C@@H]1CCC[C@H]1c1c[nH]c2ccc(C#N)cc12` gave an IC50 in assay [1] of 58 nM.

For the molecule `CNC[C@H]1CCC[C@@H]1c1c[nH]c2ccc(C#N)cc12` (racemic), the IC50 in assay [1] stood at 7 nM. Molecule `CN(C)C[C@@H]1CCC[C@@H]1c1c[nH]c2ccc(C#N)cc12` registered a half-inhibitory concentration (IC50) in assay [1] of 1.2 nM. Turning to `CN(C)C[C@H]1C[C@@H]1c1c[nH]c2ccc(C#N)cc12`, the IC50 in assay [1] stood at 0.36 nM; in assay [2], 4200 nM; in assay [3], 9200 nM. Turning to `CN(C)C[C@H]1CCC[C@H]1c1c[nH]c2ccc(C#N)cc12`, the IC50 in assay [1] amounted to 130 nM.

Turning to `CN(C)C[C@H]1CCC[C@@H]1c1c[nH]c2ccc(C#N)cc12` [listing 1 of 2 here], the result in the assay on Rattus norvegicus [4] was Active.

On to `CCN(C)C[C@H]1CCC[C@@H]1c1c[nH]c2ccc(C#N)cc12` (racemic), for which, in assay [1], the IC50 came to 10 nM. In turn, `CN(C)C[C@@H]1CCC[C@@H]1c1c[nH]c2ccc(C#N)cc12` (racemic) yielded a 50% inhibitory concentration (IC50) in assay [1] of 2.6 nM.

With `CCN(CC)C[C@H]1CCC[C@@H]1c1c[nH]c2ccc(C#N)cc12` (racemic), in assay [1], the IC50 amounted to 240 nM.

For `CN(C)C[C@H]1CCC[C@@H]1c1c[nH]c2ccc(C#N)cc12` [listing 2 of 2 here], the Activity in the assay on Rattus norvegicus [5] and in the assay with Rattus norvegicus [6] was >300% throughout. For the same molecule, the IC50 in assay [1] amounted to 0.13 nM; in assay [2], 690 nM; in assay [3], 7900 nM. For the molecule `CN(C)C[C@H]1CCC[C@@H]1c1c[nH]c2ccc(C#N)cc12` (racemic), the IC50 in assay [1] is 0.32 nM. Consider `N#Cc1ccc2[nH]cc([C@H]3CCC[C@@H]3CN3CCCC3)c2c1` (racemic), for which the 50% inhibitory concentration (IC50) in assay [1] was determined as 22 nM.
